From patent US20250368626A1, “SOLID FORMS OF 2-(3,5-DICHLORO-4-((5-ISOPROPYL-6-OXO-1,6-DIHYDROPYRIDAZIN-3-YL)OXY)PHENYL)-3,5-DIOXO-2,3,4,5-TETRAHYDRO-1,2,4-TRIAZINE-6-CARBONITRILE” (Madrigal Pharmaceuticals, Inc., priority 2018, published 2025) come the findings set out here.

The structures appear in SMILES notation. In brackets after ≈: the same amount, converted by molar mass. Bounds are passed on as bounds.

Series [1] can be described thus: Kinetic and thermodynamic solubility of Compound A and the glutaric acid co-crystal in FaSSGF, FaSSIF and water at 37° C. (HPLC). In kind it is physicochemical. Particulars: for solubility at 1 h / solubility at 24 h / Solubility: 37° C.; for pH: pH of the slurry; for XRPD after slurry: solid form after slurry. The method, then:
The kinetic and thermodynamic solubility of the glutaric acid co-crystal was assessed in simulated fasted state gastric and intestinal fluids (FaSSGF and FaSSIF) and also in water. The pH of the system was also measured. The solubility assessment was also performed on Compound A for comparison. […] Samples were collected after 24 hours for equilibrium solubility measurement.

Series [2] can be described thus: Solubility of salts of Compound A in FaSSGF, FaSSIF and water at 37° C. The following applies: for Solubility: 37° C.
Series [3] is described as follows: Stability of the co-crystal at 75% RH at 40° C. for 1 week. In kind it is physicochemical.
A short description of series [4]: Dynamic vapor sorption (DVS) of the glutaric acid co-crystal. The class given is physicochemical. The text has this:
FIG. 83 is a dynamic vapor sorption (DVS) isotherm of the glutaric acid co-crystal of Compound A showing a total mass gain of 1.12% by weight between 2% and 95% relative humidity environments.
No difference in the XRPD pattern was seen after the DVS analysis, the XRPD patterns before and after DVS analysis are shown in FIG. 84.

Series [5] is described as follows: Physical form stability of scaled-up salts at 75% relative humidity for 1 week. In kind it is physicochemical.
Where [6] appears, read: solid after solubility test in FaSSGF, by XRPD.
[7] abbreviates: Water, value of the 100X dil sample.

Regarding `CC(C)c1cc(Oc2c(Cl)cc(-n3nc(C#N)c(=O)[nH]c3=O)cc2Cl)n[nH]c1=O` [Form A, 2-(3,5-dichloro-4-((5-isopropyl-6-oxo-1,6-dihydropyridazin-3-yl)oxy)phenyl)-3,5-dioxo-2,3,4,5-tetrahydro-1,2,4-triazine-6-carbonitrile], the solubility – broadly, the dissolved amount per volume that the medium holds – at 1 h was 1.1 µg/mL (≈ 2.53 µM) in series [1] (fassgf or other biorelevant, thermodynamic from solid, FaSSGF, Kinetic-1 hour); 490 µg/mL (≈ 1120 µM) in series [1] (thermodynamic from solid, FaSSIF, Kinetic-1 hour); 25.9 µg/mL (≈ 59.5 µM) in series [1] (thermodynamic from solid, Water, Kinetic-1 hour). Besides, the solubility at 24 h in series [1] (pH 1.67, fassgf or other biorelevant, thermodynamic from solid, FaSSGF, Equilibrium-24 hours) came out at 1.1 µg/mL (≈ 2.53 µM); in series [1] (pH 6.44, thermodynamic from solid, FaSSIF, Equilibrium-24 hours), 552 µg/mL (≈ 1270 µM); in series [1] (pH 6.57, thermodynamic from solid, Water, Equilibrium-24 hours), 193 µg/mL (≈ 443 µM). The pH was 1.67 in series [1] (FaSSGF, Equilibrium-24 hours); 6.44 in series [1] (FaSSIF, Equilibrium-24 hours); 6.57 in series [1] (Water, Equilibrium-24 hours). Moreover, the XRPD after slurry entry is reported as “Form-A” in series [1] (FaSSGF, Equilibrium-24 hours); “Form-A” in series [1] (FaSSIF, Equilibrium-24 hours); “Dihydrate” in series [1] (Water, Equilibrium-24 hours).

In the case of `CC(C)c1cc(Oc2c(Cl)cc(-n3nc(C#N)c(=O)[nH]c3=O)cc2Cl)n[nH]c1=O` [Free form Anhydrous], the Solubility – broadly, the dissolved amount per volume that the medium holds – in series [2] (FaSSGF) amounted to 100 µg/mL; in series [2] (FaSSIF), 4500 µg/mL; in series [2] (Water) it was 200 µg/mL.

Take `CC(C)c1cc(Oc2c(Cl)cc(-n3nc(C#N)c(=O)[nH]c3=O)cc2Cl)n[nH]c1=O.O.O` [Free form dihydrate]: the “Solubility” value in series [2] (FaSSGF) is 6.7 µg/mL; in series [2] (FaSSIF), 2900 µg/mL; in series [2] (Water), 100 µg/mL.

With `CC(C)c1cc(Oc2c(Cl)cc(-n3nc(C#N)c(=O)[nH]c3=O)cc2Cl)n[nH]c1=O.O=C(O)CCCC(=O)O` [Glutaric acid co-crystal], the stability entry in series [3] is “stable”. Moreover, the hygroscopicity result in series [4] (DVS, 2% to 95% RH) was “not hygroscopic”. Moreover, the “mass gain (DVS)” value in series [4] (between 2% and 95% relative humidity, by weight) is reported as 1.12%. Besides, the “XRPD pattern after DVS analysis compared with the starting material” value in series [4] (listed as co-crystal) is “No difference”; in series [4] (listed as glutaric acid co-crystal) it was “no change was observed”. In addition, the “Solubility” value in series [1] (FaSSGF, Equilibrium-24 hours) turned out to be 1 µg/mL; in series [1] (FaSSGF, Kinetic-1 hour), 0.1 µg/mL; in series [1] (FaSSIF, Equilibrium-24 hours) it was 478.1 µg/mL; in series [1] (FaSSIF, Kinetic-1 hour) it was 239.9 µg/mL; in series [1] (Water, Equilibrium-24 hours), 1.6 µg/mL; in series [1] (Water, Kinetic-1 hour) it was 0.3 µg/mL. The pH in series [1] (FaSSGF, Equilibrium-24 hours) is reported as 1.66; in series [1] (FaSSIF, Equilibrium-24 hours) it was 6.31; in series [1] (Water, Equilibrium-24 hours), 4.27. The XRPD after slurry entry in series [1] (FaSSGF, Equilibrium-24 hours) is “Dihydrate”; in series [1] (FaSSIF, Equilibrium-24 hours) it was “Dihydrate”; in series [1] (Water, Equilibrium-24 hours) it was “Dihydrate”.

`CC(C)c1cc(Oc2c(Cl)cc(-n3nc(C#N)c(=O)[n-]c3=O)cc2Cl)n[nH]c1=O.CC(C)c1cc(Oc2c(Cl)cc(-n3nc(C#N)c(=O)[n-]c3=O)cc2Cl)n[nH]c1=O.[Ca+2]` [Hemi Ca]: the “physical form stability compared with starting solids” value in series [5] is reported as “changes were observed”. Moreover, the “Solubility” value was determined as 2.5 µg/mL in series [2] (FaSSGF), 800 µg/mL in series [2] (FaSSIF) and 320 µg/mL in series [2] (Water). Moreover, the Resulting form entry in series [2] (after solubility test in Water) and in series [2] (setting [6]) was “Dihydrate” each time.

For the compound `CC(C)c1cc(Oc2c(Cl)cc(-n3nc(C#N)c(=O)[n-]c3=O)cc2Cl)n[nH]c1=O.[K+]` [K], the “Solubility” value in series [2] (FaSSGF) is 1.2 µg/mL; in series [2] (FaSSIF) it was 2720 µg/mL; in series [2] (Water), > 21300 µg/mL; in series [2] (setting [7]), 210 µg/mL. Besides, the Resulting form result in series [2] (after solubility test in Water) was “Clear solution”; in series [2] (setting [6]) it was “Dihydrate”.

`CC(C)c1cc(Oc2c(Cl)cc(-n3nc(C#N)c(=O)[n-]c3=O)cc2Cl)n[nH]c1=O.[Na+]` [Na]: the “Solubility” value in series [2] (FaSSGF) was 0.8 µg/mL; in series [2] (FaSSIF), 2500 µg/mL; in series [2] (Water) it was > 25000 µg/mL; in series [2] (setting [7]) it was 250 µg/mL. Besides, the Resulting form entry in series [2] (after solubility test in Water) was “Clear solution”; in series [2] (setting [6]), “Dihydrate”.
